Each block holds one compound with its values, some of them ahead of it.
How the values were obtained:
HER2 [1] = experiment: HER2 degradation in BT-474 cells (Example 3, Western blot / in-cell imaging); format: cell-based, human; conditions: BT-474 cells; for IC50: Homo sapiens, read-out: HER2 (IC50)
HER2 [2] = experiment: HER2 degradation assay with BT-474 cell line (Example 12, FACS); format: cell-based; conditions: Homo sapiens
[3] = Stability in human plasma (Example 5); format: in vitro ADME
Protocol: (§1) This example illustrates a method for assessing the stability of SDC-TRAP of the invention in human and mouse plasma.
(§2) SDC-TRAP-0022 and SDC-TRAP-0028 were incubated in human and mouse plasma for 2 h at 37° C. and assayed for integrity at 0.25, 0.5, 1 and 2 h. The values reported below are the remaining of the parent compound at the end of the 2 h incubation period.

[4] = Stability in mouse plasma (Example 5); format: in vitro ADME
Protocol: as §1, §2

in vivo = conditions: mouse
[5] = Artificial membrane permeability assay (PAMPA) (Example 36); format: in vitro ADME; conditions: incubation 5 h, the 55th table
[6] = BT-474, SDC-TRAPs of the 43rd table
[7] = BT-474, SDC-TRAPs of the 41st table

SMILES: CCc1c2c(nc3ccc(OC(=O)N(C)CCn4ccc5cc(-n6c(O)nnc6-c6cc(C(C)C)c(O)cc6O)ccc54)cc13)-c1cc3c(c(=O)n1C2)COC(=O)C3(O)CC (stereo not shown) [SDC-TRAP-0022, 4,11-diethyl-4-hydroxy-3,14-dioxo-3,4,12,14-tetrahydro-1H-pyrano[3′,4′:6,7]indolizino[1,2-b]quinolin-9-yl (2-(5-(3-(2,4-dihydroxy-5-isopropylphenyl)-5-hydroxy-4H-1,2,4-triazol-4-yl)-1H-indol-1-yl)ethyl)(methyl)carbamate]
% Remaining 2 h (37° C.) HU ([3]; human plasma, 1 μM): 29% | % Remaining 2 h (37° C.) HU ([3]; human plasma, 10 μM): 30% | % Remaining 2 h (37° C.) MO ([4]; mouse plasma, 1 μM): 32% | % Remaining 2 h (37° C.) MO ([4]; mouse plasma, 10 μM): 31%

SMILES: C=CCNC1=C2C[C@@H](C)C[C@H](OC)[C@H](O)[C@@H](C)/C=C(\C)[C@H](OC(N)=O)[C@@H](OC)/C=C\C=C(/C)C(=O)NC(=CC1=O)C2=O [17-AAG, reference compound]
degradation of HER2 (HER2 [1]; overnight, 17-AAG at 0.5 μM): partial degradation of HER2

SMILES: CCc1c2c(nc3ccc(OCC(=O)N(C)CCOCCn4ccc5cc(-n6c(O)nnc6-c6cc(C(C)C)c(O)cc6O)ccc54)cc13)-c1cc3c(c(=O)n1C2)COC(=O)C3(O)CC (stereo not shown) [SDC-TRAP-0028, 2-((4,11-diethyl-4-hydroxy-3,14-dioxo-3,4,12,14-tetrahydro-1H-pyrano[3′,4′:6,7]indolizino[12-b]quinolin-9-yl)oxy)-N-(2-(2-(5-(3-(2,4-dihydroxy-5-isopropylphenyl)-5-hydroxy-4H-1,2,4-triazol-4-yl)-1H-indol-1-yl)ethoxy)ethyl)-N-methylacetamide]
IC50 (HER2 [1]): > 5 µM | IC50 (HER2 [2]; [6]): > 5 µM | % Remaining 2 h (37° C.) HU ([3]; human, plasma, 2 h, 1 μM): 51% | % Remaining 2 h (37° C.) HU ([3]; human, plasma, 2 h, 10 μM): 65% | % Remaining 2 h (37° C.) MO ([4]; mouse, plasma, 2 h, 1 μM): 53% | % Remaining 2 h (37° C.) MO ([4]; mouse, plasma, 2 h, 10 μM): 47%

SMILES: CC(C)c1cc(-c2nnc(O)n2-c2ccc3c(ccn3CCN(C)C(=O)c3ccc(CCc4c[nH]c5nc(N)[nH]c(=O)c45)cc3)c2)c(O)cc1O [SDC-TRAP-0019, 4-(2-(2-amino-4-oxo-4,7-dihydro-3H-pyrrolo[2,3-d]pyrimidin-5-yl)ethyl)-N-(2-(5-(3-(2,4-dihydroxy-5-isopropylphenyl)-5-hydroxy-4H-1,2,4-triazol-4-yl)-1H-indol-1-yl)ethyl)-N-methylbenzamide]
IC50 (HER2 [1]): 4.42 µM | IC50 (HER2 [2]; [7]): 4.42 µM

SMILES: CC(C)c1cc(-c2nnc(O)n2-c2ccc3c(ccn3CCOCCNC(=O)CCCC(=O)Nc3cccc4c3CN(C3CCC(=O)NC3=O)C4=O)c2)c(O)cc1O (stereo not shown) [SDC-TRAP-0015, N1-(2-(2-(5-(3-(2,4-dihydroxy-5-isopropylphenyl)-5-hydroxy-4H-1,2,4-triazol-4-yl)-1H-indol-1-yl)ethoxy)ethyl)-N5-(2-(2,6-dixopiperidin-3-yl)-1-oxoisoindolin-4-yl)glutaramide]
IC50 (HER2 [1]): 2.35 µM | IC50 (HER2 [2]; BT-474 cells): 2.35 µM

SMILES: CCc1c2c(nc3ccc(OCC(=O)N(C)CCn4ccc5cc(-n6c(O)nnc6-c6cc(C(C)C)c(O)cc6O)ccc54)cc13)-c1cc3c(c(=O)n1C2)COC(=O)C3(O)CC (stereo not shown) [SDC-TRAP-0027, 2-((4,11-diethyl-4-hydroxy-3,14-dioxo-3,4,12,14-tetrahydro-1H-pyrano[3′,4′:6,7]indolizino[1,2-b]quinolin-9-yl)oxy)-N-(2-(5-(3-(2,4-dihydroxy-5-isopropylphenyl)-5-hydroxy-4H-1,2,4-triazol-4-yl)-1H-indol-1-yl)ethyl)-N-methylacetamide]
IC50 (HER2 [1]): > 5 µM | IC50 (HER2 [2]; [6]): > 5 µM

SMILES: CCc1c2c(nc3ccc(OCC(=O)NCCn4ccc5cc(-n6c(O)nnc6-c6cc(C(C)C)c(O)cc6O)ccc54)cc13)-c1cc3c(c(=O)n1C2)COC(=O)C3(O)CC (stereo not shown) [SDC-TRAP-0023, 2-((4,11-diethyl-4-hydroxy-3,14-dioxo-3,4,12,14-tetrahydro-1H-pyrano[3′,4′:6,7]indolizino[1,2b]quinolin-9-yl)oxy)-N-(2-(5-(3-(2,4-dihydroxy-5-isopropylphenyl)-5-hydroxy-4H-1,2,4-triazol-4-yl)-1H-indol-1-yl)ethyl)acetamide]
IC50 (HER2 [1]): 4.3 µM | IC50 (HER2 [2]; [6]): 4.3 µM

SMILES: CC(C)c1cc(-c2nnc(O)n2-c2ccc3c(ccn3CCC(=O)Nc3cccc4c3CN(C3CCC(=O)NC3=O)C4=O)c2)c(O)cc1O (stereo not shown) [SDC-TRAP-0017, 3-(5-(3-(2,4-dihydroxy-5-isopropylphenyl)-5-hydroxy-4H-1,2,4-triazol-4-yl)-1H-indol-1-yl)-N-(2-(2,6-dioxopiperidin-3-yl)-1-oxoisoindolin-4-yl)propanamide]
IC50 (HER2 [1]): > 5 µM | IC50 (HER2 [2]; BT-474 cells): > 10 µM

SMILES: CC(C)c1cc(-c2nnc(O)n2-c2ccc3c(ccn3CCN(C)C(=O)CCCC(=O)Nc3cccc4c3CN(C3CCC(=O)NC3=O)C4=O)c2)c(O)cc1O (stereo not shown) [SDC-TRAP-0018, N1-(2-(5-(3-(2,4-dihydroxy-5-isopropylphenyl)-5-hydroxy-4H-1,2,4-triazol-4-yl)-1H-indol-1-yl)ethyl)-N5-(2-(2,6-dioxopiperidin-3-yl)-1-oxoisoindolin-4-yl)-N1-methylglutaramide]
IC50 (HER2 [1]): > 5 µM | IC50 (HER2 [2]; BT-474 cells): 8.21 µM

Further lines, results first:

IC50 (HER2 [1]): 0.395 µM | IC50 (HER2 [2]; BT-474, SDC-TRAPs of the 52nd table): 0.403 µM
SMILES: CC(C)c1cc(-c2nnc(O)n2-c2ccc3c(ccn3CCOC(=O)Nc3nc(=O)[nH]cc3F)c2)c(O)cc1O [SDC-TRAP-0025, 2-(5-(3-(2,4-dihydroxy-5-isopropylphenyl)-5-hydroxy-4H-1,2,4-triazol-4-yl)-1H-indol-1-yl)ethyl (5-fluoro-2-oxo-1,2-dihydropyrimidin-4-yl) carbamate]

IC50 (HER2 [1]): > 5 µM | IC50 (HER2 [2]; BT-474 cells): > 5 µM
SMILES: CC(C)c1cc(-c2nnc(O)n2-c2ccc3c(ccn3CCN(C)C(=O)NCC(=O)Nc3cccc4c3CN(C3CCC(=O)NC3=O)C4=O)c2)c(O)cc1O (stereo not shown) [SDC-TRAP-0021, 2-(3-(2-(5-(3-(2,4-dihydroxy-5-isopropylphenyl)-5-hydroxy-4H-1,2,4-triazol-4-yl)-1H-indol-1-yl)ethyl)-3-methylureido)-N-(2-(2,6-dioxopiperidin-3-yl)-1-oxoisoindolin-4-yl)acetamide]

IC50 (HER2 [2]; BT-474 cells): 0.967 µM | concentration at 1 h (in vivo; Plasma Conc.): 65200 nM | concentration at 6 h (in vivo; Plasma Conc.): 595 nM | concentration at 24 h (in vivo; Plasma Conc.): 11.1 nM | concentration at 48 h (in vivo; Plasma Conc.): 31.5 nM | Kp at 1 h (in vivo; Tumor/Plasma Ratio): 0.21 | Kp at 6 h (in vivo; Tumor/Plasma Ratio): 10.2 | Kp at 24 h (in vivo; Tumor/Plasma Ratio): 251 | Kp at 48 h (in vivo; Tumor/Plasma Ratio): 46.5 | Kp at […] (in vivo; Tumor/Plasma Ratio): 0.03
SMILES: CC(C)c1cc(-c2nnc(O)n2-c2ccc(CC3CCN(CC(=O)Nc4cccc5c4CN(C4CCC(=O)NC4=O)C5=O)CC3)cc2)c(O)cc1O (stereo not shown) [SDC-TRAP-0116, 2-(4-(4-(3-(2,4-dihydroxy-5-isopropylphenyl)-5-hydroxy-4H-1,2,4-triazol-4-yl)benzyl)piperidin-1-yl)-N-(2-(2,6-dioxopiperidin-3-yl)-1-oxoisoindolin-4-yl)acetamide]

IC50 (HER2 [1]): > 5 µM | IC50 (HER2 [2]; [7]): > 5 µM
SMILES: CC(C)c1cc(-c2nnc(O)n2-c2ccc3c(ccn3CCOCCNC(=O)c3ccc(CCc4c[nH]c5nc(N)[nH]c(=O)c45)cc3)c2)c(O)cc1O [SDC-TRAP-0020, 4-(2-(2-amino-4-oxo-4,7-dihydro-3H-pyrrolo[2,3-d]pyrimidin-5-yl)ethyl)-N-(2-(2-(5-(3-(2,4-dihydroxy-5-isopropylphenyl)-5-hydroxy-4H-1,2,4-triazol-4-yl)-1H-indol-1-yl)ethoxy)ethyl)benzamide]

Papp at 5 h [5]: 0.021 ×10⁻⁶ cm/s
SMILES: CC(C)c1cc(-c2nnc(O)n2-c2ccc3c(ccn3CCNC(=O)CCCC[C@@H]3SCC4NC(=O)NC43)c2)c(O)cc1O (stereo in doubt) [SDC-TRAP-0233, N-(2-(5-(3-(2,4-dihydroxy-5-isopropylphenyl)-5-hydroxy-4H-1,2,4-triazol-4-yl)-1H-indol-1-yl)ethyl)-5-((3 aS,4S,6aR)-2-oxohexahydro-1H-thieno[3,4-d]imidazol-4-yl)pentanamide]

IC50 (HER2 [1]): > 5 µM | IC50 (HER2 [2]; BT-474 cells): > 10 µM
SMILES: CC(C)c1cc(-c2nnc(O)n2-c2ccc(CN3CCN(C(=O)CCCC(=O)Nc4cccc5c4CN(C4CCC(=O)NC4=O)C5=O)CC3)cc2)c(O)cc1O (stereo not shown) [SDC-TRAP-0041, 5-(4-(4-(3-(2,4-dihydroxy-5-isopropylphenyl)-5-hydroxy-4H-1,2,4-triazol-4-yl)benzyl)piperazin-1-yl)-N-(2-(2,6-dioxopiperidin-3-yl)-1-oxoisoindolin-4-yl)-5-oxopentanamide]

IC50 (HER2 [1]): > 5 µM | IC50 (HER2 [2]; BT-474 cells): > 5 µM
SMILES: CC(C)c1cc(-c2nnc(O)n2-c2ccc3c(ccn3CCOCCN(C)C(=O)CCC(=O)Nc3cccc4c3CN(C3CCC(=O)NC3=O)C4=O)c2)c(O)cc1O (stereo not shown) [SDC-TRAP-0033, N1-(2-(2-(5-(3-(2,4-dihydroxy-5-isopropylphenyl)-5-hydroxy-4H-1,2,4-triazol-4-yl)-1H-indol-1-yl)ethoxy)ethyl)-N4-(2-(2,6-dioxopiperidin-3-yl)-1-oxoisoindolin-4-yl)-N1-methylsuccinamide]

Mass Retention [5]: 9.56% | Papp at 5 h [5]: 0.0123 ×10⁻⁶ cm/s
SMILES: CC(C)c1cc(-c2nnc(O)n2-c2ccc3c(ccn3CCNC(=O)CCCCCNC(=O)CCCC[C@H]3SC[C@H]4NC(=O)N[C@H]43)c2)c(O)cc1O [SDC-TRAP-0234, N-(2-(5-(3-(2,4-dihydroxy-5-isopropylphenyl)-5-hydroxy-4H-1,2,4-triazol-4-yl)-1H-indol-1-yl)ethyl)-6-(5-((3aR,4R,6aS)-2-oxohexahydro-1H-thieno[3,4-d]imidazol-4-yl)pentanamido)hexanamide]
